Patent US20250250613A1, “DISCOVERY OF BACTERIAL AIEGEN THAT LIGHTS UP SPECIFIC G-QUADRUPLEXES” (Southern Marine Science and Engineering Guangdong …, priority 2024, published 2025)

Tests used:
G4s in HeLa cells = assay: Confocal cell imaging, co-localization with G4-specific antibody BG4; format: cell-based, human
Procedure: HeLa cells were seeded onto a 12-well plate with coverslips at 37° C. and 5% CO2 for 1 day and incubated with HMPQ at 10 μM overnight. The next day, cells were fixed with 4% paraformaldehyde for 15 min at room temperature and then permeabilized with 0.2% Triton X-100 in PBS for another 10 min. G4-specific antibodies BG4 (Sigma-Aldrich, cat. no. MABE 1126) were added at 1:500 dilution for staining and incubated overnight at 4° C. Cells were washed three times with PBS and then incubated with secondary antibodies (Alexa 647 anti-rabbit for G4) at 1:1000 dilution for 1 h at room temperature. After washing the cells with PBS three times to remove excess secondary, the cells were incubated with DAPI for 5 min and washed with PBS once. The cells on slides were then air dried, mounted onto a Hydromount medium, and observed using a Leica SP8 confocal microscope.

c-kit2 G4 = assay: CD spectroscopy of c-kit2 G4 with HMPQ; format: binding
Procedure: (§1) CD spectra of G4s with HMPQ were recorded on a Chirascan CD spectrometer at room temperature from 220 nm to 320 nm under liquid mode. A 1 mm-path-length quartz cuvette was used with a 400 μL sample. Each G4 sample was prepared at the same concentration of 15 μM. The compound was mixed with G4s at a molar ratio of 1:10. Each test was scanned three times, and the background of the buffer was subtracted.

[1] = test system: regular double-stranded or single-stranded, or hairpin-structure nucleotides; assay: Photoluminescence and NMR titration with non-G4 oligonucleotides; format: binding
Excerpt: Conventional fluorescent probes rely on hydrophobic aromatic rings and π-conjugated chromophores^22. However, their tendency to aggregate in hydrophobic pockets upon binding to nucleic acid strands in aqueous environments often results in the quenching of emitted light. Conversely, AIEgens excel in aqueous media, evading aggregation-caused quenching. […] In embodiments, binding to G4s restricts the mobility of HMPQ molecules, leading to a significant enhancement in fluorescence intensity. CD spectra confirm that HMPQ maintains the original conformation of G4s and its high biocompatibility enables visualization of G4s within the cellular nucleus.
To verify whether the compounds interacted with G4 DNA, we performed NMR titration experiments by running 1D ^1H NMR spectra at 25° C. All compounds were dissolved in isotope-labelled d6-DMSO (from Sigma-Aldrich) at about 50 mM concentration as stock solutions. To avoid chemical shifts of G4 samples resulting from d6-DMSO addition, 10 μL of d6-DMSO was added into 500 μL of 0.1 mM G4 solution in the NMR buffer (20 mM potassium phosphate buffer and 70 mM KCl, pH 7.0, 10% D2O). Then, a 1D ^1H-NMR spectrum was obtained as a reference. […]
In addition to fluorescence spectroscopy tests, we performed NMR titration as another prevalent method for assessing binding affinity. […]

HeLa cells = assay: Cytotoxicity assay (thiazolyl blue tetrazolium bromide), HeLa; format: cell-based, human; conditions: even at 100 μM, 24 h
Procedure: (§2) HEK293 and HeLa cells were purchased from ATCC, and HT22 cells were purchased from Sigma-Aldrich. They were cultured in Dulbecco's modified Eagle's medium (Thermo Fisher Scientific, 11965092) with 10% fetal bovine serum (Thermo Fisher Scientific, 26140079) and 1% penicillin-streptomycin at 37° C. in a humidified incubator with 5% CO2. After 1 day of cell culture, cells were seeded onto 96-well plates with a density of 5000 cells in each well and cultured for another 24 h. Then, HMPQ with different concentrations was added and treated for 24 h. After incubating with 20 μL of thiazolyl blue tetrazolium bromide (5 mg/mL in PBS buffer; Sigma-Aldrich) for 4 h, supernatants were removed, and 100 μL of DMSO was added to dissolve formazan. After shaking for 5 min in darkness, a Multiskan FC microplate was used to measure absorbance at 570 nm.

[2] = Absolute quantum yield of HMPQ in different states; format: physicochemical; conditions: for Quantum Yield (%): excitation 320 nm
Procedure: Streptomyces chrestomyceticus BCC24770 was acquired from the Thailand Bioresource Research Centre. All oligonucleotides used were bought from Integrated DNA Technologies company (Singapore). NMR spectra were recorded on a 500 M or 800 M Varian spectrometer at 25° C. HRMS data were recorded on a Xevo G2-XS QTOF mass spectrometer from Water's. HPLC analysis or preparation was performed using a Waters HPLC system (Waters 2695 Separations Module; Milford, USA) and monitored under a Waters 2998 Photodiode Array Detector. Semi-preparative HPLC was performed using a Phenomenex Luna C18 column (250 mm×10 mm in size) and designed for a particle size of 5 μm. Single-crystal XRD data were collected on a Rigaku-Oxford Diffraction Supernova Dual Atlas diffractometer. Crystal photos were taken under Nikon ECLIPSE Ts2R fluorescence microscopes. CD spectra were collected using Chirascan Circular Dichroism (CD) Spectrometers. UV-vis absorption spectra were obtained under a Shimadzu UV-2600 spectrophotometer (medium scanning rate and quartz cuvettes of 2 cm path length). Photoluminescence spectra were recorded on an Edinburgh FS5 Spectrofluorometer. Absolute quantum yield was collected using an integrating sphere on a Hamamatsu Quantum Yield Spectrometer C11347 Quantaurus. All digital photographs were recorded on a Canon EOS 7D camera. A Leica SP8 confocal microscope was used for cell imaging.
After observing the strong emission of crystalline-state HMPQ, we studied its photophysical properties in a polymer matrix. HMPQ was dissolved and blended with the common polymer poly(methyl methacrylate) (PMMA)^39. A series of films was prepared by coating mixtures with varying weight percentages (wt %) of HMPQ onto a quartz substrate. The resulting films, containing different wt % of HMPQ, were analysed to measure their photoluminescence (PL) and quantum yield (QY) (FIGS. 3A-3D and 14, Table 2).

[3] = test system: immortalized mouse hippocampal neuronal cells HT22; assay: Cytotoxicity assay (thiazolyl blue tetrazolium bromide), HT22; format: cell-based; conditions: even at 100 μM, 24 h
Procedure: as §2

[4] = test system: c-kit2 (SEQ ID NO: 3) DNA G4; assay: Photoluminescence test of HMPQ with c-kit2 G4 (turn-on, Stern-Volmer plot, LOD); format: binding
Procedure: Single DNA nucleotides were purchased from Integrated DNA Technologies. The DNA sample at 100 μM (single strands) was then re-annealed by heating to 95° C. for 15 min, followed by slow cooling to room temperature overnight in an annealing buffer of 70 mM KCl and 20 mM potassium phosphate (pH 7.0). The final NMR samples contained 0.1 mM DNA or RNA in 20 mM potassium phosphate buffer (pH 7.0) and 70 mM KCl.
The intriguing conformational change observed in HMPQ led to exceptional emission performance, prompting us to explore its application as a fluorescent probe. The inherent two-planar aromatic rings of HMPQ offer the potential for interaction with the guanine tetrad or conjugation with side chains of novel nucleic acid secondary structures, G4s^45,46. To evaluate the binding affinity of HMPQ, a series of photoluminescence tests was conducted using various G4 samples introduced with HMPQ (Table 5).
To delve deeper into the sensitivity of HMPQ as a fluorescent G4 probe, the PL spectra of HMPQ (0.15 mM) were obtained with varying concentrations of c-kit2, as illustrated in FIG. 5B. […] According to the equation for limit of detection (LOD), LOD=3 SB/m (SB=the standard deviation of the repeated 10 blank measurements, and m=the slope of the relative intensity over […]), it was calculated as 28.7 nM^49,50. […]

HEK293 cells = assay: Cytotoxicity assay (thiazolyl blue tetrazolium bromide), HEK293; format: cell-based, human; conditions: even at 100 μM, 24 h
Procedure: as §2

c-kit1 G4 = assay: CD spectroscopy of c-kit1 G4 with HMPQ; format: binding
Procedure: as §1

c-myc G4 = assay: CD spectroscopy of c-myc G4 with HMPQ; format: binding
Procedure: as §1

QY ([2]; 30 wt % film (HMPQ in PMMA)): 30.5% | Quantum Yield (%) ([2]; Film, 1 wt. % HMPQ in PMMA): 25.5% | Quantum Yield (%) ([2]; Film, 5 wt. % HMPQ in PMMA): 27.9% | Quantum Yield (%) ([2]; Film, 10 wt. % HMPQ in PMMA): 29.4% | Quantum Yield (%) ([2]; Film, 20 wt. % HMPQ in PMMA): 30.5% | Quantum Yield (%) ([2]; Film, 40 wt. % HMPQ in PMMA): 30.0% | Quantum Yield (%) ([2]; Film, 60 wt. % HMPQ in PMMA): 27.1% | Quantum Yield (%) ([2]; Film, 100 wt. % HMPQ): 23.0% | Quantum Yield (%) ([2]; In DMSO Solution, 10^−5 M): 6.7% | Quantum Yield (%) ([2]; In THF Solution, 10^−5 M): 2.4% | Quantum Yield (%) ([2]; Solid Powder): 3.9%
SMILES: CCC(=O)c1ccc(OC)c(-c2nc3ccccc3c(=O)[nH]2)c1O [HMPQ, 2-(2-hydroxy-6-methoxy-3-propionylphenyl)quinazolin-4(3H)-one]
penetration of the cell nucleus (G4s in HeLa cells; BG4 as control): efficiently penetrated the cell nucleus | Overlap coefficient (G4s in HeLa cells; FIG. 6C legend): 0.943 | overlap coefficient with BG4 (G4s in HeLa cells; HMPQ 10 μM overnight): 94.3% | effect on original G4 conformation (CD spectrum) (c-kit2 G4): non-disruptive | interaction with non-G4 nucleotides [1]: no interaction | cytotoxicity (HeLa cells): no cytotoxicity | cytotoxicity [3]: no cytotoxicity | fluorescence enhancement at 497 nm upon interaction with c-kit2 ([4]; 20 mM KH2PO4 buffer, 70 mM KCl, pH 7.0): around 300 fold | Stern-Volmer constant m ([4]; HMPQ 0.15 mM, c-kit2 0 μM to 50 μM): 1.94e+06 M⁻¹ | cytotoxicity (HEK293 cells): no cytotoxicity | effect on original G4 conformation (CD spectrum) (c-kit1 G4): non-disruptive | effect on original G4 conformation (CD spectrum) (c-myc G4): non-disruptive
